Experimental data taken from publication PMC11628397 (Nature Synthesis, 2024).
In brackets after ≈: the same amount, converted by molar mass.

What was measured:
[1] = metabolic stability in human liver microsomes
[2] = kinetic solubility in phosphate-buffered saline, pH 7.4; type: physicochemical; settings: pH 7.4, aqueous buffer, kinetic from dmso stock
[3] = system: human cancer cell line MCF-7; settings: MCF-7 human cancer cell line; cited from earlier work
MCF-7 cells = settings: cited from earlier work
[4] = system: human cancer cell line MCF-7; test: resazurin reduction assay, growth inhibition of MCF-7; type: cell-based; settings: MCF7, read-out: IC50, inhibition of the growth of MCF-7

**Q.** What does the source list for `CCOC(=O)c1ccc(N)cc1` [Benzocaine]?
**A.** CLint, metabolic stability (as printed in text) [1]: 83 mg/min/µL; solubility kinetic [2]: 385 µM (≈ 63.6 µg/mL)

**Q.** What does the source list for `CC(C)(C)c1ccc(CN2CCN(C(c3ccccc3)c3ccc(Cl)cc3)CC2)cc1` (stereo not drawn) [Buclizine]?
**A.** effect on cell growth (in words) [3]: cytostatic effect; cell differentiation, intracellular lipid droplets (in words) (MCF-7 cells): induced cell differentiation; solubility kinetic [2]: ≤ 1 µM; IC50 [4]: 31.3 ± 7.8 µM
